Measured values as given in paper PMC8795197, “Safety and activity of WX-0593 (Iruplinalkib) in patients with ALK- or ROS1-rearranged advanced non-small cell lung cancer: a phase 1 dose-escalation and dose-expansion trial” (Signal Transduction and Targeted Therapy, 2022).
Entries after “also recorded” stand apart in the source; their conditions may differ.

Tested on: advanced NSCLC patients with ALK or ROS1 rearrangement
Test: Phase 1 dose-expansion phase: antitumor activity (RECIST 1.1, investigators)
Assay type: in vivo, human
Conditions: for objective response rate / intracranial objective response rate: Total; for intracranial objective response rate: Baseline measurable CNS metastasis
Excerpt: Patients continued treatment until documented disease progression, unacceptable toxicity, withdrawal of consent, the start of a new anticancer treatment, death, loss of follow-up, or end of the study (whichever occurred first). Patients were permitted to continue treatment after progression if they were still experiencing clinical benefit, at the discretion of the investigator. Patients performed imaging evaluation at baseline, with computed tomography or magnetic resonance imaging of the chest, abdomen, pelvis, and brain. In the dose-escalation phase, the first efficacy evaluation was done after 3-week continuous administration of WX-0593 and every 6 weeks thereafter. […] AEs were assessed in all patients throughout this study and graded per the National Cancer Institute Common Terminology Criteria for Adverse Events version 4.03. In the dose-expansion phase, the primary endpoint was ORR assessed by investigators. Other key secondary endpoints included PFS, DCR, time to progression (TTP), DOR, intracranial response, and safety. Additionally, overall survival (OS) was assessed as a prespecified exploratory endpoint. ORR was defined as the proportion of patients who had best overall response, including CR or PR. PFS was calculated from the date of the first dose of WX-0593 to the date of documented disease progression or death (whichever occurred first). DCR was defined as the proportion of patients who had best overall response, including CR, PR, or SD, with a duration of at least 12 weeks. TTP was calculated from the date when the first dose of WX-0593 was given to first documented disease progression. […] OS was calculated from the date when the first dose of WX-0593 was administered to the date of death from any cause. Safety analysis was performed in the SS, which was comprised of all patients treated with one dose of WX-0593 and with safety data recorded. Efficacy analysis was performed in the FAS, which was defined as all patients treated with at least one dose of WX-0593. The PK analysis set included all patients treated with at least one dose of WX-0593 and with at least one evaluable PK sample. […] Descriptive statistics were carried out to summarize patients’ baseline characteristics and safety. […] All time-to-event data (PFS, TTP, DOR, and OS) and their corresponding 95% CIs were estimated by Kaplan–Meier methods. PK parameter analyses were done with Phoenix WinNonlin version 8.0. All other statistical analyses were conducted using SAS version 9.4.

[1] = ROS1-positive patients, 120 mg (n=3)
[2] = ROS1-positive patients, 180 mg (n=6)
[3] = ROS1-positive patients, total (n=9)
[4] = baseline measurable or non-measurable brain metastasis
[5] = baseline measurable or non-measurable brain metastasis (n = 58)
[6] = both crizotinib and other ALK TKIs
[7] = crizotinib as the only ALK TKI treatment

SMILES: COc1cc(N2CCC3(CCN(C)CC3)CC2)ccc1Nc1ncc(Cl)c(Nc2ccccc2P(C)(C)=O)n1 [WX-0593]
- DOR, median (95% CI) (ROS1-positive patients, 120 mg): NR (NR, NR)
- PFS, median (95% CI) (ROS1-positive patients, 120 mg): 2.76 (1.35, 2.76) mo
- TTP, median (95% CI) (ROS1-positive patients, 120 mg): 2.76 (1.35, 2.76) mo
- DCR (95% CI) [1]: 66.7% (9.4%, 99.2%)
- ORR (95% CI) [1]: 0 (0%, 70.8%)
- PFS, number of events (%) [1]: 3 (100%)
- TTP (mo), n (%) [1]: 3 (100%)
- DOR, median (95% CI) (ROS1-positive patients, 180 mg): NR (NR, NR)
- PFS, median (95% CI) (ROS1-positive patients, 180 mg): NR (1.35, NR)
- TTP, median (95% CI) (ROS1-positive patients, 180 mg): NR (1.35, NR)
- DCR (95% CI) [2]: 66.7% (22.3%, 95.7%)
- ORR (95% CI) [2]: 66.7% (22.3%, 95.7%)
- PFS, number of events (%) [2]: 2 (33.3%)
- TTP (mo), n (%) [2]: 2 (33.3%)
- DOR, median (95% CI) (ROS1-positive patients, total): NR (NR, NR)
- PFS, median (95% CI) (ROS1-positive patients, total): 2.76 (1.35, NR) mo
- TTP, median (95% CI) (ROS1-positive patients, total): 2.76 (1.35, NR) mo
- ORR (95% CI) [3]: 44.4%
- PFS, number of events (%) [3]: 5 (55.6%)
- TTP (mo), n (%) [3]: 5 (55.6%)
- ORR (ROS1-rearranged, crizotinib naive): 80.0%
- median PFS (ROS1 rearrangement, crizotinib-naive (n = 5)): not reached
- objective response rate (ALK-rearranged patients): 58.2% (53/91, 47.4-68.5%)
- objective response rate (ALK-rearranged patients, ALK TKI naive): 76.3% (29/38, 59.8-88.6%)
- objective response rate (ALK-rearranged patients, ALK TKI naive, chemotherapy naïve): 85.0% (17/20, 62.1-96.8%)
- objective response rate (ALK-rearranged patients, ALK TKI naive, received chemotherapy before): 66.7% (12/18, 41.0-86.7%)
- objective response rate (ALK-rearranged patients, Crizotinib and other ALK TKIs): 40.0% (2/5, 5.3-85.3%)
- objective response rate (ALK-rearranged patients, Crizotinib only): 45.7% (21/46, 30.9-61.0%)
- objective response rate (ALK-rearranged patients, Other ALK TKIs): 50.0% (1/2, 1.3-98.7%)
- objective response rate (Baseline CNS metastasis): 22.4% (13/58, 12.5-35.3%)
- objective response rate (Baseline CNS metastasis, ALK TKI naive): 25.0% (5/20, 8.7-49.1%)
- objective response rate (Baseline CNS metastasis, Crizotinib only): 21.2% (7/33, 9.0-38.9%)
- objective response rate (Baseline CNS metastasis, Radiotherapy before): 10.5% (2/19, 1.3-33.1%)
- objective response rate (Baseline CNS metastasis, Radiotherapy naïve): 28.2% (11/39, 15.0-44.9%)
- intracranial objective response rate: 46.7% (7/15, 21.3-73.4%)
- intracranial objective response rate (ALK TKI naive): 50.0% (2/4, 6.8-93.2%)
- intracranial objective response rate (Crizotinib only): 50.0% (5/10, 18.7-81.3%)
- intracranial objective response rate (Radiotherapy before): 28.6% (2/7, 3.7-71.0%)
- objective response rate (Prior ALK TKI treatment: Crizotinib and other ALK TKI): 40.0% (2/5, 5.3-85.3%)
- objective response rate (Prior ALK TKI treatment: Crizotinib only): 42.0% (21/50, 28.2-56.8%)
- objective response rate (ROS1-rearranged patients): 44.4% (4/9, 13.7-78.8%)
- objective response rate (ROS1-rearranged patients, Crizotinib naive): 80.0% (4/5, 28.4-99.5%)
- objective response rate (ROS1-rearranged patients, Received Crizotinib before): 0 (0/4, 0-60.2%)
- objective response rate (dose expansion phase, Prior ALK TKI treatment: ALK TKI naive): 76.2% (32/42, 60.5-87.9%)
- DOR, median (95% CI) (all patients, 120 mg): NR (5.52, NR)
- PFS, median (95% CI) (all patients, 120 mg): NR (6.83, NR)
- TTP, median (95% CI) (all patients, 120 mg): NR (6.87, NR)
- DCR (95% CI) (all patients, 120 mg (n=50)): 82.0% (68.6%, 91.4%)
- PFS, number of events (%) (all patients, 120 mg (n=50)): 15 (30.0%)
- DOR, median (95% CI) (all patients, 180 mg): NR (5.49, NR)
- PFS, median (95% CI) (all patients, 180 mg): NR (NR, NR)
- TTP, median (95% CI) (all patients, 180 mg): NR (NR, NR)
- DCR (95% CI) (all patients, 180 mg (n=49)): 85.7% (72.8%, 94.1%)
- PFS, number of events (%) (all patients, 180 mg (n=49)): 10 (20.4%)
- DOR, median (95% CI) (all patients, total): not reached (NR) (95% CI 5.52 months to NR); also recorded: NR (5.65, NR)
- PFS, median (95% CI) (all patients, total): not reached (95% CI 6.93 months to NR); also recorded: NR (6.93, NR)
- TTP, median (95% CI) (all patients, total): NR (6.93, NR)
- intracranial ORR (baseline measurable CNS metastasis, radiotherapy before): 28.6%
- intracranial ORR (baseline measurable CNS metastasis, radiotherapy naive): 62.5%
- intracranial ORR (baseline measurable brain metastasis): 46.7%
- intracranial ORR (baseline measurable brain metastasis, ALK TKI naive): 50%
- intracranial ORR (baseline measurable brain metastasis, crizotinib before): 50%
- intracranial ORR [4]: 22.4%
- median PFS [4]: not reached (95% CI 6.90 months to NR)
- patients with intracranial PR [5]: 7
- patients with intracranial complete remission (CR) [5]: 6
- DCR [6]: 100%
- ORR [6]: 40.0%
- median PFS [6]: not reached
- DCR [7]: 76.0%
- ORR [7]: 42.0%
- median PFS (previously only crizotinib): 6.83 months
